The numbers were not newly measured in patent publication US9744299B2, “Data processing device for an anesthesia device” (Dräger Medical GmbH, priority 2012, dated 2017), which cites them from elsewhere.

Series [1] has as its system patients. Conditions: effect-site concentration, 50% of patients tolerate "Shake and Shout".
Series [2] has as its system patients. Conditions: steepness of the rise of the response surface; property of the drug.

Each structure is given as a SMILES string. Where two headings read alike, the source gives them in different places.

Consider `CC(C)c1cccc(C(C)C)c1O` [Propofol, propofol], for which the C50hyp with patients [1] (C50Prop) is 2.99 µg/mL. Also, the “h (Steepness)” value with patients [2] was 3.46.

`FCOC(C(F)(F)F)C(F)(F)F` [sevoflurane]: the C50hyp in the series with patients [1] (C50Vol) is reported as 1.47 vol. %.
